Experimental data reported in patent publication US20110294741A1, “USE OF COMPOUNDS IN THE TREATMENT OF TAU-INDUCED CYTOTOXICITIES” (Bioalvo-Servicos, Investigacao e Desenvolvimento em …, priority 2008, published 2011).

Key:
rats (Wister, male) [1] = experiment: In vivo toxicology: histological alterations in liver, kidney and spleen; parameters: species or system rat; settings: i.p. once a day 3.23 mg-100 g body mass, seven days, hematoxylin/eosin sections
Procedure: (§1) The toxicological studies were carried out with rats (Wister, male) injected i.p. once a day with 3.23 mg-100 g body mass during seven days.
For investigation of histological alterations in liver, kidney and spleen hematoxylin/eosin-stained sections of fixed tissue were used. Hematoxylin/eosin-stained sections were examined by an experienced pathologist.

[2] = system: Tau P301L ([…] I P301L cells); experiment: Yeast platform DISAGGREGATOR I P301L, ER stress GFP reporter (target induced); format: cell-based; settings: for decrease of the fluorescent signal: first assay (FIG. 9); for decrease of the stress: second assay (FIG. 11)
Procedure: Cells were grown in 200 microlitre minimum medium supplemented with 20 g/L galactose, at 30° C., with agitation at 600 rpm;
KTP-NH2 was further tested on a general inducer of the same pathological mechanism to assess its specificity for tau and compared with two control KTP derivatives which were tested on the same platform.
The Endoplasmic Reticulum (ER) fulfils multiple cellular functions, the main one being the proper folding of proteins destined for secretion or display on the cell surface. Many disturbances cause accumulation of unfolded proteins in the ER, triggering an evolutionarily conserved response, termed the unfolded protein response (UPR) or ER stress. The initial intent of the UPR is to adapt to the changing environment, and re-establish normal ER function.
In parallel, the yeast platform DISAGGREGATOR I P301L comprises the same ER stress element operably linked to the same GFP reporter element and additionally expresses the exogenous protein TAU P301L which induces ER stress.
Using these two platforms in parallel, it is possible to identify compounds that reduce specifically the stress induced by the TAU P301L protein, and other compounds that are simply general ER stress reducers.
DISAGGREGATOR I P301L cells were grown in 200 μl medium containing KTP-NH2 or control compounds (referred to as control 1 and control 2) at a concentration of 10 μM and 100 μM. No effect on the fluorescence could be detected for the control compounds, meaning that the two compounds are inefficient to reduce the stress triggered by the TAU P301L protein (FIGS. 7 and 8).
DISAGGREGATOR I P301L cells were grown in 200 μl medium containing the KTP-NH2 at a concentration of 10 μM and 100 μM. DISAGGREGATOR I cells were grown in the same condition but subjected to an addition of 1 μg/mL of tunicamycin in order to induce ER stress chemically.
The inventors created a yeast-based screening application for the detection of compounds that act as modulators of the toxicity (neurodegeneration) for neurons (not pain) induced by the expression of tau P301L, a pathological isoform of tau protein. This yeast-based application is designated as DISAGGREGATOR I P301L and provides a valuable tool for the high throughput screening of tau modulators. It is a model-based system where the cellular environment produced upon P301L expression is recapitulated and cell toxicity is measured and quantified. Compounds that have the potential to modulate pathological pathways activated by the expression of P301L are detected through a reduction in the cytotoxic readout. Tau protein is expressed in central nerve cells and, consequently, tauopathies are diseases of the central nervous system. This implies that a therapeutic compound for tauopathies must be able to access the central nervous system by penetrating the blood-brain barrier. We tested KTP-NH2 in the DISAGGREGATOR P301L system. Results were very impressive for KTP-NH2 to be used as a drug for tau-associated pathologies. Therefore, after obtaining the proof of concept confirmation of KTP-NH2 potential as a tau modulator, we developed a series of derivatives with a higher plasma-stability. The present invention protects the use of KTP-NH2 and its derivatives in the treatment of tau-induced cytotoxicities.

rats (Wister, male) [3] = experiment: In vivo toxicology: hepatotoxicity markers in the plasma; parameters: species or system rat; settings: i.p. once a day 3.23 mg-100 g body mass, seven days
Procedure: as §1
Liver is the major organ of toxicity. Blood samples were collected and the following hepatotoxicity markers were assayed in the plasma: • Alanine transaminase (ALT), • Aspartate transaminase (AST) • Alkaline phosphatase (ALP) • Total bilirubin (TBIL) • Gamma glutamyl transpeptidase (GGT)
Increased levels of the liver enzymes ALT, AST, ALP and GGT in the plasma indicate lesions in liver. Increased RBL would be a sign of faulty bilirubin production/hemolysis and/or bilirubin metabolism (in liver).

[4] = Acrylamide quenching to determine aggregation in aqueous medium; format: physicochemical; settings: acrylamide quenching of tyrosine fluorescence, Stern-Volmer plot
Procedure: The aggregation of molecules in aqueous medium, as a result of poor solubility, for example, is a critical parameter in pharmacology. […] For this purpose, acrylamide quenching studies were performed (Lakowicz J. R 1999. Principles of Fluorescence spectroscopy, Second Edition ed., Kluwer Academic/Plenum Publishers, New York; Coutinho A and Prieto M. 1993. Ribonuclease T1 and alcohol dehydrogenase fluorescence quenching by acrylamide: A laboratory experiment for undergraduate students J. Chem. Education, 70: 425-428).
Acrylamide is an aqueous quencher of the tyrosine fluorescence. When fluorescent peptides aggregate, the phenolic groups tend to cluster and remain inaccessible to hydrophilic molecules. Conversely, when no aggregation occurs, all tyrosine residues are exposed to the solvent and, therefore, accessible to the contact and quenching by acrilamide.
The fluorescence spectra were not concentration-dependent (not shown) and there was a linear dependence of fluorescence intensity on concentration (not shown).

With `N=C(N)NCCCC(NC(=O)C(N)Cc1ccc(O)cc1)C(N)=O` [KTP-NH2, L-Tyr-L-Arg-NH2] the “histological alterations in kidney and spleen” value (rats (Wister, male) [1]) was “no histological modifications were found”, the “histological alterations in liver” value (rats (Wister, male) [1]) was “no signs of hepatic necrosis” and the “effect on the fluorescence (ER stress triggered by TAU P301L)” value ([2]; 10 μM and 100 μM) was “decreased the fluorescence signal”. For the same compound, the “decrease of the fluorescent signal” value ([2]; 10 μM) was 40%, the “decrease of the stress” value ([2]; 10 μM) was 50% and the “residual ER stress signal, of the maximum level without compound” value ([2]; 100 μM, average of two experiments (FIG. 13)) was ~40%. For the same compound, the “decrease of the fluorescent signal” value ([2]; 100 μM) was 65%, the “decrease of the stress” value ([2]; 100 μM) was 50% and the GGT in plasma (rats (Wister, male) [3]) was “below the detection limit”. For the same compound, the “hepatotoxicity markers in plasma (AST, ALT, ALP, total bilirubin) versus control animals” value (rats (Wister, male) [3]) was “no toxic effects were detected” and the “aggregation in aqueous medium” value [4] was “No evidence was found for aggregation”.
